Data reported in patent US7064122B2, “Pancreatic lipase inhibitor compounds, their synthesis and use” (OSI Pharmaceuticals, Inc., priority 2001, dated 2006).

Legend:
[1] = target: T1, type VI-S porcine pancreatic lipase (Sus scrofa, UniProt P00591); assay: Pancreatic lipase assay (pH-stat titration, triolein substrate); format: biochemical; set-up: Ymax: unit not given here; details: for Ymax / k: 7.0 nM lipase, 700 nM inhibitor, pH 8.0; for Ymax: Ymax of the fit Y=Ymax*(1-exp(-k*X)); for k: k fitted for the 12.5 min after inhibitor addition, Y=Ymax*(1-exp(-k*X)); for inhibition at 0.7 µM: 12.5 min
T1 construct: purchased Sigma type VI-S (catalogue number not given)
T1 sequence (P00591 1-450): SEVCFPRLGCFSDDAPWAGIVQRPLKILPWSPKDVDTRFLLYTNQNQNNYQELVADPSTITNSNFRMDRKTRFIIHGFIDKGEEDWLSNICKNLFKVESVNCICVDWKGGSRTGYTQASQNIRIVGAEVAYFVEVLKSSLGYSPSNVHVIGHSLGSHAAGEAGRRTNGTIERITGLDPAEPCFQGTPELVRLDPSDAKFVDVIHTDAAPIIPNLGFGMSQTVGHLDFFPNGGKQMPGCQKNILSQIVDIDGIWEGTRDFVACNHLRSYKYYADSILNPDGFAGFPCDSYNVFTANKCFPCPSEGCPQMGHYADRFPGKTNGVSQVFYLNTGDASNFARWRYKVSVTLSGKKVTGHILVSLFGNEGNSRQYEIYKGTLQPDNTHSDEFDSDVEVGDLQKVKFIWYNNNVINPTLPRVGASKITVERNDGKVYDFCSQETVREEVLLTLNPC
Procedure: The use of a pancreatic lipase assay has been described in the literature (Hadvary, P. et al. Biochem. J. (1988) 256: 357-361; Hadvary, P. et al. Biochem. J. (1991) 266:2021-2027). Pancreatic lipase activity was measured using a 718 Stat Titrino (Brinkmann) programmed to maintain a pH of 8.0 using 0.1 N NaOH. The substrate mixture (pH 8) contained 1 mM taurochenodeoxycholate (Sigma), 9 mM taurodeoxycholate (Sigma), 0.1 mM cholesterol (Sigma), 1 mM phosphatidylcholine (Sigma), 1.5% BSA, 2 mM Tris base, 100 mM NaCl, 10 mM CaCl2, and 3% triolein (Sigma). The mixture (5 mL) was emulsified via sonication at room temperature, and added to the titration vessel with rapid stirring. The Stat Titrino was turned on and lipase (7.0 nM type VI-S porcine pancreatic lipase (Sigma) dissolved in PBS) was added to the vessel. After 10 min, inhibitor (700 nM dissolved in 100% DMSO) was added and the reaction continued for an additional 12.5 min. The k values were determined for the 12.5 min after the addition of the inhibitor using a one phase exponential association equation, Y=Ymax*(1−exp(−k*X)), k values for lipase alone were 0.0004±0.0001 sec. The k values for compounds disclosed herein are >0.0004±0.0001 sec.

Row | Structure (SMILES) | Ymax [1] | k [1] | melting point | inhibition at 0.7 µM [1] [%]
1 | CCCCCCCCNc1nc2sc(CCCCCCC)cc2c(=O)o1 [Entry 61, 6-Heptyl-2-octylamino-thieno[2,3-d][1,3]oxazin-4-one] | 0.460 | 0.247 10-3.s-1 | 89 to 91 °C | –
2 | CCCCCCCCOC(=O)c1sc2nc(OCCCCCCCC)oc(=O)c2c1C [Entry 9, 5-Methyl-2-octyloxy-4-oxo-4H-thieno[2,3-d][1,3]oxazine-6-carboxylic acid octyl ester] | 0.286 | 0.924 10-3.s-1 | 58.5 to 60.2 °C | –
3 | CCCCCCCCNc1nc2sc(C(=O)NCC(C)(C)C)c(C)c2c(=O)o1 [Entry 58] | – | 0.723 10-3.s-1 | 173 to 174.5 °C | –
4 | CCCCCCCCNc1nc2sc(C(=O)N(CCCCCC)CCCCCC)c(C)c2c(=O)o1 [Entry 42, 5-Methyl-2-octylamino-4-oxo-4H-thieno[2,3-d][1,3]oxazine-6-carboxylic acid dihexylamide] | 0.124 | 1.123 10-3.s-1 | 42 to 45 °C | –
5 | CCCCCCCCOC(=O)c1sc2nc(OC(C)C)oc(=O)c2c1C [Entry 12, 2-iso-Propoxy-5-methyl-4-oxo-4H-thieno[2,3-d][1,3]oxazine-6-carboxylic acid octyl ester] | – | 0.438 10-3.s-1 | 47.5 to 48 °C | –
6 | CCCCCCCCNc1nc2sc(C(=O)N(CCCCCCCC)CCCCCCCC)c(C)c2c(=O)o1 [Entry 41, 5-Methyl-2-octylamino-4-oxo-4H-thieno[2,3-d][1,3]oxazine-6-carboxylic acid dioctylamide] | 0.130 | 1.050 10-3.s-1 | 48 to 50 °C | –
7 | CCCCCCCCNC(=O)c1sc2nc(NCCCCCCCC)oc(=O)c2c1C [Entry 18, 5-Methyl-2-octylamino-4-oxo-4H-thieno[2,3-d][1,3]oxazine-6-carboxylic acid octylamide] | – | 1.036 10-3.s-1 | 152 to 152.8 °C | 18
8 | CCCCCCN(C)c1nc2sc(C(=O)OCc3ccccc3)c(C)c2c(=O)o1 [Entry 57, 2-(Hexyl-methyl-amino)-5-methyl-4-oxo-4H-thieno[2,3-d][1,3]oxazine-6-carboxylic acid benzyl ester] | – | 0.070 10-3.s-1 | 86 to 88 °C | –
9 | CCCCCCCCCCCCNc1nc2sc(C(=O)NCCCCCCCC)c(C)c2c(=O)o1 [Entry 24, 2-Dodecylamino-5-methyl-4-oxo-4H-thieno[2,3-d][1,3]oxazine-6-carboxylic acid octylamide] | – | 1.849 10-3.s-1 | 137.1 to 138 °C | –
10 | CCCCCCCCNC(=O)Nc1sc(C(=O)N2CCN(Cc3ccccc3)CC2)c(C)c1C(=O)O [Entry 37, 5-(4-Benzyl-piperazine-1-carbonyl)-4-methyl-2-(3-octyl-ureido)-thiophene-3-carboxylic acid] | 0.211 | 0.574 10-3.s-1 | 193.5 to 195 °C (dec.) | –
11 | CCCCCCCCCCCCCCNc1nc2sc(C(=O)NCCCCCCCC)c(C)c2c(=O)o1 [Entry 25, 5-Methyl-4-oxo-2-tetradecylamino-4H-thieno[2,3-d][1,3]oxazine-6-carboxylic acid octylamide] | – | 1.629 10-3.s-1 | 145 to 145.8 °C | –
12 | CCCCCCCCOc1nc2sc(CCCCCCC)c(C)c2c(=O)o1 [Entry 74, 6-Heptyl-5-methyl-2-octyloxy-thieno[2,3-d][1,3]oxazin-4-one] | 0.982 | 0.422 10-3.s-1 | 29 to 31 °C | –
13 | CCCCCCCCCCCCCCCCNc1nc2sc(C(=O)NCCCCCCCC)c(C)c2c(=O)o1 [Entry 26, 2-Hexadecylamino-5-methyl-4-oxo-4H-thieno[2,3-d][1,3]oxazine-6-carboxylic acid octylamide] | – | 1.709 10-3.s-1 | 146.3 to 147 °C | –

Continued, values first:

Row | Ymax [1] | k [1] | melting point | inhibition at 0.7 µM [1] [%] | Structure (SMILES)
14 | – | 0.777 10-3.s-1 | 152.5 to 158 °C | – | CCCCCCCCNc1nc2sc(C(=O)NC)c(C)c2c(=O)o1 [Entry 31, 5-Methyl-2-octylamino-4-oxo-4H-thieno[2,3-d][1,3]oxazine-6-carboxylic acid methylamide]
15 | 0.339 | 0.284 10-3.s-1 | 77 to 80 °C | – | CCCCCCCCNc1nc2sc(C(=O)N3CCc4cc(OC)c(OC)cc4C3)c(C)c2c(=O)o1 [Entry 65, 6-(6,7-Dimethoxy-3,4-dihydro-1H-isoquinoline-2-carbonyl)-5-methyl-2-octylamino-thieno(2,3-d)(1,3)oxazin-4-one]
16 | 0.112 | 1.137 10-3.s-1 | 149 to 152 °C | – | CCCCCCCCNc1nc2sc(C(=O)NCc3ccc4c(c3)OCO4)c(C)c2c(=O)o1 [Entry 69, 5-Methyl-2-octylamino-4-oxo-4H-thieno(2,3-d)(1,3)oxazine-6-carboxylic acid (2-benzo(1,3)dioxol-5-yl-methyl)-amide]
17 | – | 1.711 10-3.s-1 | 153.5 to 154 °C | – | CCCCCCCCNc1nc2sc(C(=O)OCc3ccccc3)c(C)c2c(=O)o1 [Entry 16, 5-Methyl-2-octylamino-4-oxo-4H-thieno[2,3-d][1,3]oxazine-6-carboxylic acid benzyl ester]
18 | – | 0.009 10-3.s-1 | 100 to 106 °C | – | CCCCCCCCNc1nc2sc(C(=O)N3CCC(Cc4ccccc4)CC3)c(C)c2c(=O)o1 [Entry 43, 6-(4-Benzyl-piperidine-1-carbonyl)-5-methyl-2-octylamino-thieno[2,3-d][1,3]oxazin-4-one]
19 | 0.118 | 1.027 10-3.s-1 | 159 to 163 °C | – | CCCCCCCCNc1nc2sc(C(=O)NCc3ccc(OC)c(OC)c3)c(C)c2c(=O)o1 [Entry 66, 5-Methyl-2-octylamino-4-oxo-4H-thieno(2,3-d)(1,3)oxazine-6-carboxylic acid (2-(3,4-dimethoxy-phenyl)-methyl)-amide]
20 | – | – | 139 to 141 °C | 66.3 | CCCCCCCCNc1nc2sc(C(=O)NCCCc3ccccc3)c(C)c2c(=O)o1 [Entry 80, 5-Methyl-2-octylamino-4-oxo-4H-thieno(2,3-d)(1,3)oxazine-6-carboxylic acid (3-phenyl-propyl)-amide]
